Test results published in patent publication US20240148821A1, “PHARMACEUTICAL USE OF CYCLIC PEPTIDE COMPOUND” (CHUGAI SEIYAKU KABUSHIKI KAISHA, priority 2021, published 2024).
Numbered stars: 1 amine (or outer) side, 2 acyl side, 3 side chain; on linkers, the order of the positions; unused ones are H or OH. Bridge positions count the residues as written; N and C are the ends. Square brackets hold non-standard residues; d marks the D form. Peptide text beside a SMILES is read from it. * marks the point of attachment. hPhe(3-Cl-4-CF3) = N[C@@H](CCc1ccc(C(F)(F)F)c(Cl)c1)C(=O)O; hPhe(3-F,4-CF3) = N[C@@H](CCc1ccc(C(F)(F)F)c(F)c1)C(=O)O; X98 = O=C([C@H](CCOc1ccc(Cl)c(Cl)c1)N[*:1])[*:2]; 3Oxa8azabicyclo(3.2.1)octane = C1CC2COCC1N2*; NMePhe(4-Cl) = CN[C@@H](Cc1ccc(Cl)cc1)C(=O)O; X30 = O=C([C@H](CCc1ccc(Cl)cc1F)N[*:1])[*:2]; NMePhe(4-Me) = CN[C@@H](Cc1ccc(C)cc1)C(=O)O; NMePhe(2-Cl) = CN[C@@H](Cc1ccccc1Cl)C(=O)O; NMeAla(cPent) = CN[C@@H](CC1CCCC1)C(=O)O; NMeGly(cPent) = CN[C@H](C(=O)O)C1CCCC1; NMeCha = CN[C@@H](CC1CCCCC1)C(=O)O; X4 = C#CC[C@H](CC(=O)[*:2])N[*:1]; NMeChg = CN[C@H](C(=O)O)C1CCCCC1; NMeF = CN[C@@H](Cc1ccccc1)C(=O)O; NMeI = CC[C@H](C)[C@H](NC)C(=O)O; NMeD = CN[C@@H](CC(=O)O)C(=O)O; NMeL = CN[C@@H](CC(C)C)C(=O)O; NMeNva = CCC[C@H](NC)C(=O)O; NMeV = CN[C@H](C(=O)O)C(C)C; d(β3hA) = C[C@@H](N)CC(=O)O; NMeS = CN[C@@H](CO)C(=O)O; NMeA = CN[C@@H](C)C(=O)O; Piperidide = C1CCN(*)CC1; Pyrrolidide = C1CCN(*)C1; dNMeA = CN[C@H](C)C(=O)O; Ac5c = NC1(C(=O)O)CCCC1; Aze = O=C(O)[C@@H]1CCN1; Cyclobutyl = C1CC(*)C1; Sar = CNCC(=O)O; Propyl = CCC*

What follows are molecules tested against protein-protein interaction between Kras and SOS1 (biotin-tagged human Kras loaded with GDP, His-tagged human SOS1) (Homo sapiens (Human), UniProt P01116, G12D) (assay: Protein-protein interaction inhibition between Kras and SOS1 (KrasG12D-SOS PPI) using AlphaScreen). Conditions: AlphaScreen; biotin-tagged human Kras loaded with GDP, His-tagged human SOS1; read-out: KRAS G12D-SOS PPI IC50.
Format: biochemical

Point of comparison: `CC[C@H](C)[C@@H]1NC(=O)[C@H](C)N(C)C(=O)C[C@@H](C)NC(=O)[C@H](CC(C)C)N(C)C(=O)[C@H](Cc2ccccc2)N(C)C(=O)[C@H](CC(C)C)NC(=O)[C@H](CCc2ccc(Cl)cc2F)NC(=O)CN(C)C(=O)[C@H](Cc2ccc(Cl)cc2)N(C)C(=O)CN(C)C(=O)CN(C)C1=O` [Compound 2086] (cyclo(I[Sar][Sar][NMePhe(4-Cl)][Sar][X30]L[NMeF][NMeL][d(β3hA)][NMeA])), IC50 100 nM. Against it:
- CC[C@H](C)[C@@H]1NC(=O)[C@H](C)N(C)C(=O)C[C@@H](C(=O)N2CCCCC2)N(C)C(=O)[C@H](C2CCCCC2)N(C)C(=O)C2(CCCC2)NC(=O)[C@@H]2CCCN2C(=O)[C@H](CCOc2ccc(Cl)c(Cl)c2)NC(=O)CN(C)C(=O)[C@H](CC2CCCCC2)N(C)C(=O)CN(C)C(=O)CN(C)C1=O [Compound 2039, (3S,9S,18S,21S,25S,28S,34S)-28-cyclohexyl-9-(cyclohexylmethyl)-3-[2-(3,4-dichlorophenoxy)ethyl]-7,10,13,16,21,22,26,29-octamethyl-18-[(1S)-1-methylpropyl]-25-(piperidine-1-carbonyl)spiro[1,4,7,10,13,16,19,22,26,29,32-undecazabicyclo[32.3.0]heptatriacontane-31,1′-cyclopentane]-2,5,8,11,14,17,20,23,27,30,33-undecone] ([NMeA]I[Sar][Sar][NMeCha][Sar][X98]P[Ac5c][NMeChg][NMeD]-Piperidide; lactam N-11) — 5.6-fold lower, 18 nM
- C#CC[C@@H]1CC(=O)N(C)[C@@H](CC(C)C)C(=O)N[C@@H]([C@@H](C)CC)C(=O)N(C)[C@@H](C)C(=O)N2CC[C@H]2C(=O)N(C)[C@@H](Cc2ccc(C)cc2)C(=O)N(C)CC(=O)N[C@@H](CCc2ccc(C(F)(F)F)c(Cl)c2)C(=O)N2CCC[C@H]2C(=O)NC2(CCCC2)C(=O)N(C)[C@@H]([C@@H](C)CC)C(=O)N1 [Compound 1967] (cyclo([Ac5c][NMeI][X4][NMeL]I[NMeA][Aze][NMePhe(4-Me)][Sar][hPhe(3-Cl-4-CF3)]P)) — within 1.5-fold, 77 nM
- CCCOC[C@H]1C(=O)N2CC[C@H]2C(=O)N(C)[C@@H](CC2CCCCC2)C(=O)N(C)[C@H](C)C(=O)N[C@@H](CCc2ccc(C(F)(F)F)c(Cl)c2)C(=O)N2CCC[C@H]2C(=O)NC2(CCCC2)C(=O)N(C)[C@@H](C(C)C)C(=O)N[C@H](C)CC(=O)N(C)[C@@H](C)C(=O)N[C@@H]([C@@H](C)CC)C(=O)N1C [Compound 2016] (cyclo([Ac5c][NMeV][d(β3hA)][NMeA]I[NMeS](Propyl)[Aze][NMeCha][dNMeA][hPhe(3-Cl-4-CF3)]P)) — 2.7-fold higher, 270 nM
- CC[C@H](C)[C@@H]1NC(=O)[C@H](CC(C)C)N(C)C(=O)C[C@@H](C(=O)N2CCCC2)N(C)C(=O)[C@H](C(C)C)N(C)C(=O)C2(CCCC2)NC(=O)[C@@H]2CCCN2C(=O)[C@H](CCc2ccc(C(F)(F)F)c(Cl)c2)NC(=O)CN(C)C(=O)[C@H](CC2CCCCC2)N(C)C(=O)[C@@H]2CCN2C(=O)CN(C)C1=O [Compound 1670] ([NMeL]I[Sar][Aze][NMeCha][Sar][hPhe(3-Cl-4-CF3)]P[Ac5c][NMeV][NMeD]-Pyrrolidide; lactam N-11) — 100-fold lower, 1 nM
- CC[C@H](C)[C@@H]1NC(=O)[C@H](CC(C)C)N(C)C(=O)C[C@@H](C)NC(=O)[C@H](C2CCCC2)N(C)C(=O)C2(CCCC2)NC(=O)[C@@H]2CCCN2C(=O)[C@H](CCc2ccc(C(F)(F)F)c(Cl)c2)NC(=O)CN(C)C(=O)[C@H](CC2CCCCC2)N(C)C(=O)[C@@H]2CCN2C(=O)CN(C)C1=O [Compound 1499] (cyclo([Ac5c][NMeGly(cPent)][d(β3hA)][NMeL]I[Sar][Aze][NMeCha][Sar][hPhe(3-Cl-4-CF3)]P)) — 5.3-fold lower, 19 nM
- CCCOC[C@H]1C(=O)N(C)CC(=O)N[C@@H](CCc2ccc(C(F)(F)F)c(F)c2)C(=O)N2CCC[C@H]2C(=O)NC2(CCCC2)C(=O)N(C)[C@@H](C2CCCC2)C(=O)N(C)[C@H](C(=O)N2C3CCC2COC3)CC(=O)N(C)[C@@H](CC(C)C)C(=O)N[C@@H]([C@@H](C)CC)C(=O)N(C)[C@@H](C)C(=O)N2CC[C@H]2C(=O)N1C [Compound 1030] ([NMeL]I[NMeA][Aze][NMeS](Propyl)[Sar][hPhe(3-F,4-CF3)]P[Ac5c][NMeGly(cPent)][NMeD]-{3Oxa8azabicyclo(3.2.1)octane}; lactam N-11) — 59-fold lower, 1.7 nM
- CC[C@H](C)[C@@H]1NC(=O)[C@H](COC2CCC2)N(C)C(=O)C[C@@H](C(=O)N2CCCCC2)N(C)C(=O)[C@H](C(C)C)N(C)C(=O)C2(CCCC2)NC(=O)[C@@H]2CCCN2C(=O)[C@H](CCc2ccc(C(F)(F)F)c(Cl)c2)NC(=O)CN(C)C(=O)[C@H](CC2CCCCC2)N(C)C(=O)[C@@H]2CCN2C(=O)[C@H](C)N(C)C1=O [Compound 755] ([NMeS](Cyclobutyl)I[NMeA][Aze][NMeCha][Sar][hPhe(3-Cl-4-CF3)]P[Ac5c][NMeV][NMeD]-Piperidide; lactam N-11) — 18-fold lower, 5.6 nM
- CCCOC[C@H]1C(=O)N(C)CC(=O)N[C@@H](CCc2ccc(C(F)(F)F)c(F)c2)C(=O)N2CCC[C@H]2C(=O)NC2(CCCC2)C(=O)N(C)[C@@H]([C@@H](C)CC)C(=O)N(C)[C@H](C(=O)N2C3CCC2COC3)CC(=O)N(C)[C@@H](CC(C)C)C(=O)N[C@@H]([C@@H](C)CC)C(=O)N(C)[C@@H](C)C(=O)N2CC[C@H]2C(=O)N1C [Compound 408] ([NMeL]I[NMeA][Aze][NMeS](Propyl)[Sar][hPhe(3-F,4-CF3)]P[Ac5c][NMeI][NMeD]-{3Oxa8azabicyclo(3.2.1)octane}; lactam N-11) — 9.1-fold lower, 11 nM
- CC[C@H](C)[C@@H]1NC(=O)[C@H](C)N(C)C(=O)C[C@@H](C(=O)N2CCCC2)N(C)C(=O)[C@H](C(C)C)N(C)C(=O)C2(CCCC2)NC(=O)[C@H](Cc2ccccc2Cl)N(C)C(=O)[C@H](CCc2ccc(C(F)(F)F)c(Cl)c2)NC(=O)CN(C)C(=O)[C@H](CC2CCCCC2)N(C)C(=O)CN(C)C(=O)CN(C)C1=O [Compound 2008] ([NMeA]I[Sar][Sar][NMeCha][Sar][hPhe(3-Cl-4-CF3)][NMePhe(2-Cl)][Ac5c][NMeV][NMeD]-Pyrrolidide; lactam N-11) — within 1.5-fold, 140 nM
- CCC[C@H]1C(=O)N[C@@H]([C@@H](C)CC)C(=O)N(C)[C@@H](C)C(=O)N2CC[C@H]2C(=O)N(C)[C@@H](CC2CCCCC2)C(=O)N(C)CC(=O)N[C@@H](CCc2ccc(C(F)(F)F)c(Cl)c2)C(=O)N2CCC[C@H]2C(=O)NC2(CCCC2)C(=O)N(C)[C@@H](C(C)C)C(=O)N[C@H](C)CC(=O)N1C [Compound 1564] (cyclo([Ac5c][NMeV][d(β3hA)][NMeNva]I[NMeA][Aze][NMeCha][Sar][hPhe(3-Cl-4-CF3)]P)) — 2.6-fold lower, 38 nM
- CCCOC[C@H]1C(=O)N(C)CC(=O)N[C@@H](CCc2ccc(C(F)(F)F)c(Cl)c2)C(=O)N2CCC[C@H]2C(=O)NC2(CCCC2)C(=O)N(C)[C@@H](C2CCCC2)C(=O)N(C)[C@H](C(=O)N2C3CCC2COC3)CC(=O)N(C)[C@@H](CC2CCCC2)C(=O)N[C@@H]([C@@H](C)CC)C(=O)N[C@@H](C)C(=O)N2CC[C@H]2C(=O)N1C [Compound 1359] ([NMeAla(cPent)]IA[Aze][NMeS](Propyl)[Sar][hPhe(3-Cl-4-CF3)]P[Ac5c][NMeGly(cPent)][NMeD]-{3Oxa8azabicyclo(3.2.1)octane}; lactam N-11) — 16-fold lower, 6.2 nM
